Values of other authors, collected in patent US20020028759A1, “Detergent compositions” (Unilever Home & Personal Care USA, Division of Conopco, Inc., priority 1999, published 2002).
Like-named read-outs stand apart in the source and are kept apart here.

Conditions: 20° C.
[1] = other common materials, by contrast

Structure (SMILES) | Water Solubility (g/100 g) [1] [g/100 g] | Water Solubility (g/100 g) (highly water-soluble materials)
O=BO[O-].[Na+] [Sodium perborate anhydrous] | 3.7 | 
O=P(O)(O)OP(=O)(O)OP(=O)(O)O [Sodium tripolyphosphate anhydrous] | 15 | 
NC(N)=O [Urea] |  | >100
